Where two headings read alike, the source gives them in different places.
How the values were obtained:
[1] = system: P. falciparum chloroquine-sensitive D10 strain; experiment: pLDH in vitro anti-malarial assay, D10 strain; assay type: cell-based, Plasmodium falciparum; conditions: for IC50: Plasmodium falciparum; for Anti-malarial activity (in words): D10 strain, SAR discussion
Procedure: (§1) Asexual P. falciparum chloroquine-sensitive 3D7 and D10 cultures, as well as chloroquine-resistant K1 strain cultures, were maintained and synchronized according to established methods in an atmosphere consisting of 5% oxygen, 5% carbon dioxide and 90% nitrogen. The parasites were maintained at a 5% haematocrit in RPMI 1640 medium supplemented with 25 mM HEPES, 22 mM glucose, 0.0088% hypoxanthine, 40 ug/mL gentamycin (all Sigma) and 0.5% Albumax (Invitrogen).
(§2) The anti-plasmodial activities of the extracts and pure compounds were determined against the chloroquine-sensitive D10 and the chloroquine-resistant K1 strains via the parasite lactate dehydrogenase (pLDH) assay. All test substances were stored at -20°C prior to testing. […] Chloroquine diphosphate (Sigma) was used as a reference drug in all experiments. The test substances were evaluated as ten serial two-fold dilutions (0.2 - 100 μg/mL final concentration) in medium (two replicates per concentration point) in duplicate wells. […] Test solutions were mixed with suspensions of infected human red blood cells to achieve a final haematocrit of 1% and parasitaemia of 2% and incubated for 48 h in microtitre plates (250 uL final volume). Incubation conditions were as described above for the routine maintenance of the P. falciparum cultures. The IC50 values, serving as a measure for anti-plasmodial activities, were calculated by non-linear regression dose-response analysis using GraphPad Prism v.4.0 software.

[2] = system: P. falciparum chloroquine-resistant K1 strain; experiment: microbe, parasite or virus in culture; assay type: cell-based; conditions: Plasmodium falciparum
Procedure: as §1, §2

P. falciparum 3D7 [3] = experiment: Dose-response curves on P. falciparum 3D7 (IC99 for treatment); assay type: cell-based, Plasmodium falciparum; conditions: P. falciparum 3D7, determined from dose-response curves
Procedure: as §1
A morphological comparison between compound 1 treated versus untreated parasites was performed to assess the effect of treatment and to establish sampling times, by examining the stage-specific progression of parasites across the intra-erythrocytic development cycle. The solvent (DMSO) or compound 1 was added in the window shortly after red blood cell (RBC) invasion and parasite development was monitored 6 hourly over a 48 h period using conventional Giemsa-stained smears. Fresh cultures were scaled up to 50 ml (5% hematocrit, 10% parasitemia), synchronized twice and treated with compound 1 in the window around invasion. Fifteen milliliters of culture was harvested at each of the stages used for transcriptional analyses (2, 6 and 12 hpt). Similar volumes were harvested from untreated P. falciparum 3D7 control cultures at the same time points. Parallel drug treatments were conducted, serving as biological replicates. […]

[4] = system: induction of intracellular adhesion molecule-1 (ICAM-1); parameters: method as in PMID 12762788; conditions: cited from earlier work
[5] = system: Chinese hamster ovary (CHO) cell line; experiment: MTT in vitro cytotoxicity assay; assay type: cell-based; conditions: for IC50: Cricetulus griseus, read-out: CHO IC50 (μM) n = 2; for Mammalian toxicity, CHO (in words): SAR discussion
Procedure: Compounds were tested for in vitro cytotoxicity against a Chinese hamster ovary (CHO) cell line using the MTT [3-(4,5-dimethylthiazol-2-yl)-2,5-diphenyltetrazolium bromide] assay. The CHO cells were cultured in DMEM: Hams F-12 medium (1:1) supplemented with 10% heat-inactivated foetal calf serum (FCS) and gentamycin ([…]) (Highveld Biological, RSA). Samples were dissolved in 10% MeOH. Stock solutions (2 mg/mL) were prepared and were stored at -20°C until use. The samples were added to CHO cells as five ten-fold serial dilutions ranging from 100 - 0.01 μg/mL. A serial dilution of emetine (100 - 0.001 μg/mL) was used as a positive control. Cells were seeded in 96-well plates at a concentration of 10^5/mL (100 μL per well) and incubated at 37°C for 24 h in a humidified 5% CO2-air atmosphere. The medium was subsequently aspirated from the wells and replaced with 200 μL of the test compound dilutions. The microplates were incubated at 37°C for 48 h, after which 25 μL of sterile MTT (5 mg/mL in PBS) was added to each well and incubation was continued for 4 h at 37°C. Formazan crystals formed by viable cells were dissolved in DMSO and quantitated by measuring absorbance at 540 nm in a microtitre plate reader (Cambridge Technologies). Cell viabilities were calculated relative to reference wells containing no test compounds (positive cell controls) and no cells (background controls), plotted against log[test sample] and IC50 values derived by non-linear regression analysis using GraphPad Prism v.4.0 software.

NCI's 60-cell line panel = system: NCI's 60-cell line panel; parameters: method as in earlier work; conditions: selectivity trend towards the leukaemia sub-panel; cited from earlier work
P. falciparum 3D7 [6] = experiment: Morphological analysis of treated ring-stage parasites (Giemsa smears); assay type: cell-based, Plasmodium falciparum; conditions: 3D7, treated at early ring stage with 12.5 μM, followed over 48 h
Procedure: A morphological comparison between compound 1 treated versus untreated parasites was performed to assess the effect of treatment and to establish sampling times, by examining the stage-specific progression of parasites across the intra-erythrocytic development cycle. The solvent (DMSO) or compound 1 was added in the window shortly after red blood cell (RBC) invasion and parasite development was monitored 6 hourly over a 48 h period using conventional Giemsa-stained smears. Fresh cultures were scaled up to 50 ml (5% hematocrit, 10% parasitemia), synchronized twice and treated with compound 1 in the window around invasion. Fifteen milliliters of culture was harvested at each of the stages used for transcriptional analyses (2, 6 and 12 hpt). Similar volumes were harvested from untreated P. falciparum 3D7 control cultures at the same time points. Parallel drug treatments were conducted, serving as biological replicates. RNA was extracted from the frozen erythrocyte pellets as described.
A morphological analysis was performed with dehydrobrachylaenolide to ascertain the point during intra-erythrocytic development at which P. falciparum 3D7 growth was affected. […] Based on these morphological observations and the apparent rapid effect of dehydrobrachylaenolide on P. falciparum development, sampling times for transcriptional analysis were subsequently determined as 2, 6 and 12 hpt. […]

[7] = D10, 48 h, read-out: D10 IC50 (μM) n = 8
[8] = D10, read-out: D10 strain IC50 (μM) n = 2
[9] = K1, 48 h, read-out: K1 IC50 (μM) n = 4
[10] = K1, read-out: K1 strain IC50 (μM) n = 2
[11] = read-out: D10 strain IC50 (μM) n = 2, Table 2, D10, pLDH assay, parent compound n = 8

In the case of `C=C1C(=O)C=C[C@]2(C)CC[C@H]3C(=C)C(=O)O[C@H]3[C@@H]12` [Compound 1, 3-oxoeudesma-1,4(15),11(13)-triene-12,6α-lide], the IC50 [1, 7] is reported as 1.86 ± 0.254 µM, the IC50 [1, 8] is reported as 1.86 µM and the IC50 ([1]; D10, read-out: IC50 against D10 strain) is reported as 0.455 µg/mL. The IC50 [2, 9] was 4.09 ± 0.579 µM, the IC50 ([2]; K1, read-out: IC50 against K1 strain) was 1 µg/mL and the IC50 [2, 10] was 4.09 µM. The “IC99 (treatment concentration)” value (P. falciparum 3D7 [3]) was 12.5 µM, the “Activity toward ICAM-1 induction (in words)” value [4] was “inhibitory activity” and the IC50 ([5]; CHO, 48 h) was 17.2 µM. The IC50 ([5]; CHO) was 17.2 µM, the “Anti-cancer activity (in words)” value (NCI's 60-cell line panel) was “significant anti-cancer activity” and the “Morphological effect on intra-erythrocytic development” value (P. falciparum 3D7 [6]) was “Treated parasites remained arrested in the ring phase”.

In the case of `C=C1C(=O)O[C@@H]2C3=C(C)C(=O)C=C[C@]3(C)CC[C@@H]12` [Compound 2, (3aS,5aS,9bS)-5a,9-dimethyl-3-methylene-3a,4,5,5a-tetrahydronaphtho[1,2-b]furan-2,8(3H,9bH)-dione], the “Anti-malarial activity (in words)” value [1] is reported as “six-fold less active”, the IC50 [1, 8] is reported as 11.5 µM and the IC50 [2, 10] is reported as 9.05 µM. It also gave an IC50 ([5]; CHO) of 7.01 µM.

For `C=C1C(=O)O[C@@H]2[C@H]3[C@@H](C)C(=O)C=C[C@]3(C)CC[C@@H]12` [Compound 6, (3aS,5aS,9R,9aS,9bS)-5a,9-dimethyl-3-methylene-3a,4,5,5a,9,9a-hexahydronaphtho[1,2-b]furan-2,8(3H,9bH)-dione], the “Anti-malarial activity (in words)” value [1] was “no significant improvement in anti-malarial activity”, the IC50 [1, 8] was 16.9 µM and the “Mammalian toxicity, CHO (in words)” value ([5]; CHO cells) was “increased mammalian cell toxicity”. It also gave an IC50 ([5]; CHO) of 41.9 µM.

In the case of `C=C1C(=O)C[C@H]2C1CCC1(C)CCC(=O)C(C)C21` (stereo partly drawn) [Compound 5, (9bS)-5a,9-Dimethyl-3-methyleneoctahydro-1H-cyclopenta[a]naphthalene-2,8(3H,9bH)-dione], the “Anti-malarial activity (in words)” value [1] is reported as “moderate anti-malarial activity”, the IC50 [1, 11] is reported as 22.1 µM and the “Mammalian toxicity, CHO (in words)” value ([5]; CHO cells) is reported as “substantially reduced”. The IC50 ([5]; Table 2, CHO cells, MTT) was 124 µM.

For `C[C@@H]1C(=O)O[C@H]2[C@H]1CC[C@@]1(C)CCC(=O)[C@H](C)[C@H]21` [Compound 4, (3S,3aS,5aS,9R,9aS,9bS)-3,5a,9-trimethyl-octahydronaphtho[1,2-b]furan-2,8(3H,9bH)-dione], the “Anti-malarial activity (in words)” value [1] was “lacking both activity and toxicity”, the IC50 [1, 11] was greater than 40 µM and the “Mammalian toxicity, CHO (in words)” value ([5]; CHO cells) was “lacking both activity and toxicity”. For the same molecule, the IC50 ([5]; Table 2, CHO cells, MTT) was greater than 400 µM.

In the case of `CC1=C2[C@H]3OC(=O)[C@@H](C)[C@@H]3CC[C@@]2(C)C=CC1=O` [Compound 3, santonin], the “Anti-malarial activity (in words)” value [1] is reported as “devoid of any significant anti-malarial activity”, the IC50 [1, 8] is reported as greater than 40 µM and the “Mammalian toxicity, CHO (in words)” value ([5]; CHO cells) is reported as “devoid of any significant anti-malarial activity or mammalian toxicity”. The IC50 ([5]; CHO) was greater than 400 µM.

Molecule `CCN(CC)CCCC(C)Nc1ccnc2cc(Cl)ccc12` (centres unmarked) [Chloroquine, Chloroquine diphosphate, reference compound] has an IC50 [1, 7] of 0.038 µM, an IC50 [2, 9] of 0.2 µM and an IC50 ([5]; CHO, 48 h) of 35.8 µM.

— PMC3200184, “In vitro anti-plasmodial activity of Dicoma anomala subsp. gerrardii (Asteraceae): identification of its main active constituent, structure-activity relationship studies and gene expression profiling” (Malaria Journal, 2011)
